# Source: patent US12060334B2, “3-substituted phenazine derivatives as antimicrobial agents” (University of Florida Research Foundation, Incorporated, priority 2021, dated 2024)
# Where two headings read alike, the source gives them in different places. Marks after values point to notes of the source that are not given here.
# Tests used:
# Mtb CDC1551 = assay: microbe, parasite or virus in culture; assay type: cell-based, Mycobacterium tuberculosis
# human red blood cells = assay: Hemolysis assay with red blood cells; conditions: human RBCs, 1 hour, 37° C.
# Procedure: Hemolysis assays are used to determine the membrane-lysis activity of a compound, which is of particular interest to this work as membrane-lysing agents (e.g., QACs) can eradicate biofilms.
# Cytotoxicity Assay against HEK-293 Cells.^48 The viability of HEK-293 cells was assessed by the MTT assay. The cells were cultured in DMEM medium containing 10% fetal bovine serum and 100 U/mL penicillin and streptomycin. The cells (10^4 cells/well) were seeded onto a 96-well plate and maintained at 37° C. in a humidified incubator under 5% CO2 overnight. […] After incubation at 37° C. for 72 hours, 10 μL of MTT (5 mg/mL) in PBS was added to each well and incubated for 4 hours, followed by the aspiration of the medium. Dimethyl sulfoxide (DMSO, 100 μL) was then added to each well to dissolve the MTT in the wells, and the plate was agitated for 1 hour. The optical density (OD) was measured at 570 nm using a UV/vis microplate spectrophotometer (BioTek). The percent inhibition was calculated as follows: Inhibition (%)=(1−test OD570/non-treated OD570)×100%. The data were analyzed by Origin. Hemolysis Assay with Red Blood Cells. […] The washing was repeated three times with the buffer. In 96-well plate, test compounds were added to the buffer from DMSO stocks. […] The plate was then incubated for 1 hour at 37° C. After incubation, the plate was centrifuged for 5 minutes at 3,500 rpm before 80 μL of the supernatant was transferred to another 96-well plate to obtain an optical density (OD) read at 405 nm. DMSO served as the negative control (0% hemolysis) while Triton X served as the positive control (100% hemolysis) in these experiments. The percent hemolysis was calculated as (OD405 of the compound treated RBCs−OD405 DMSO control)/(OD405 Triton X treated RBCs−OD405 buffer) from three independent experiments.
# MRSA-1707 biofilms = assay: Calgary Biofilm Device (CBD) assay; conditions: Staphylococcus aureus, read-out: MRSA-1707 MBC
# [1] = test system: E. faecalis OG1RF biofilms; assay: Calgary Biofilm Device (CBD) assay; conditions: Enterococcus faecalis, OG1RFBIOFILMS, read-out: E.faecalis OG1RF MBC
# HepG2 cells = assay: Alamar Blue cytotoxicity assay, HepG2; conditions: read-out: Hep G2 Cytotox. (IC50), 24-h
# MRSE 35984 = assay: MIC susceptibility assay (broth microdilution); conditions: 16 h; for MIC: Staphylococcus epidermidis, MRSE, read-out: MIC MRSE 35984
# Procedure: (§1) (MIC values were further supported by spectrophotometric readings at OD600). The concentration range tested for each HP compound during this study was 0.05 to 50 μM. DMSO served as our vehicle and negative control in each microdilution MIC assay. DMSO was serially diluted with a top concentration of 0.5% v/v.
# VRE 700221 = assay: MIC susceptibility assay (broth microdilution); conditions: 16 h; for MIC: Enterococcus, VRE, read-out: MIC VRE 700221
# Procedure: The concentration range tested for each HP compound during this study was 0.05 to 50 μM. DMSO served as our vehicle and negative control in each microdilution MIC assay. DMSO was serially diluted with a top concentration of 0.5% v/v.
# E. faecalis OG1RF = assay: MIC susceptibility assay (broth microdilution); conditions: Enterococcus faecalis, 16 h, read-out: MIC E. faecalis OG1RF
# Procedure: as §1
# J774 MΦ = assay: Alamar Blue cytotoxicity assay, J774 macrophages; conditions: read-out: J774 MΦ Cytotox. (IC50), 24-h
# MRSE 35984 biofilms = assay: Calgary Biofilm Device (CBD) assay; conditions: Staphylococcus epidermidis, MRSE, read-out: MRSE 35984 MBC
# HeLa cells = assay: LDH release assay for HeLa cytotoxicity; conditions: read-out: HeLa Cell Cytotox. (IC50), 24-h, tested at 25, 50 and 100 μM
# MRSA-1707 = assay: MIC susceptibility assay (broth microdilution); conditions: 16 h; for MIC: Staphylococcus aureus, MRSA, read-out: MIC MRSA-1707, planktonic growth inhibition, 16 h, 37° C.
# Procedure: as §1
# MRSA-44 = assay: MIC susceptibility assay (broth microdilution); conditions: Staphylococcus aureus, 16 h, read-out: MIC MRSA-44
# Procedure: as §1
# VRE 700221 biofilms = assay: Calgary Biofilm Device (CBD) assay; conditions: Enterococcus, read-out: VRE 700221 MBC
# MRSA 1 = assay: MIC assay against clinical isolate; assay type: cell-based, S. aureus; conditions: Staphylococcus aureus
# MRSA 2 = assay: MIC assay against clinical isolate; assay type: cell-based, S. aureus; conditions: Staphylococcus aureus
# S. aureus 129 = assay: MIC assay against clinical isolate; assay type: cell-based; conditions: Staphylococcus aureus
# S. aureus 147 = assay: MIC assay against clinical isolate; assay type: cell-based
# S. aureus 138 = assay: MIC assay against clinical isolate; assay type: cell-based; conditions: Staphylococcus aureus
# S. aureus 156 = assay: MIC assay against clinical isolate; assay type: cell-based; conditions: Staphylococcus aureus, 156, read-out: MIC S. aureus 156
# [2] = test system: MRSA, MRSE and VRE strains; assay: MIC assays, summary statements over several Gram-positive strains; conditions: read-out: MIC against MRSA, MRSE and VRE strains
# Procedure: as §1
# Mtb H37Ra = assay: MIC assay for Mtb H37Ra; conditions: seven days, 37° C.
# [3] = Mycobacterium tuberculosis, CDC1551, 120 h
# [4] = planktonic growth inhibition, 37° C.
Compound,MIC (Mtb CDC1551; [3]) [µM],% Hemolysis at 200 μM (human red blood cells) [%],MBC (MRSA-1707 biofilms) [µM],IC50 (HepG2 cells) [µM],MIC (E. faecalis OG1RF) [µM],IC50 (J774 MΦ) [µM],MBC (MRSE 35984 biofilms) [µM],MIC (MRSA-1707) [µM],other results
"Cc1c(Br)ccc2nc3c(O)c(Br)c(Cl)c(Br)c3nc12 [Compound 31, 2,4,7-Tribromo-3-chloro-6-methylphenazin-1-ol]",0.88,27,75,> 200,0.08,> 200,–,–,MIC (Mtb CDC1551): 0.88 µM; MBC [1]: 1.56 µM; MIC (MRSE 35984): 0.1 µM; MIC (VRE 700221): ≤ 0.05 µM
"Oc1c(Br)c(Cl)c(Br)c2nc3ccc(F)cc3nc12 [Compound 33, 2,4-Dibromo-3-chloro-8-fluorophenazin-1-ol]",1.71,≤1,12.5,> 200,–,> 200,12.5,0.15,IC50 (HeLa cells): > 25 µM; MIC MRSA-1707 (MRSA-1707; [4]): 0.15 µM; MIC (MRSA-44): 0.2 µM
"Oc1c(Br)c(Cl)c(Br)c2nc3ccc(I)cc3nc12 [Compound 37, 2,4-Dibromo-3-chloro-8-iodophenazin-1-ol]",–,3.0,12.5,–,1.56,–,6.25,0.15,MBC (VRE 700221 biofilms): 4.69 µM; MIC (MRSE 35984): 0.3 µM
"CCSc1c(Br)c(O)c2nc3cccc(C)c3nc2c1Br [Compound 45, 2,4-Dibromo-3-(ethylthio)-6-methylphenazin-1-ol]",1.69,5.7,50,> 200,0.78,> 100,12.5,–,"MIC (MRSA 1): 0.31 µM; MIC (MRSA 2): 0.63 µM; MIC (S. aureus 129): 0.47 µM; MIC (S. aureus 147; Staphylococcus aureus, 147, clinical isolate, read-out: MIC S. aureus 147): 0.47 µM; MIC (S. aureus 138): 0.47 µM; MIC (S. aureus 156): 0.47 µM; MIC MRSE 35984 (MRSE 35984; [4]): 0.30^a μM"
"Cc1cccc2nc3c(O)c(Br)c(SCCO)c(Br)c3nc12 [Compound 46, 2,4-Dibromo-3-((2-hydroxyethyl)thio)-6-methylphenazin-1-ol]",–,–,–,–,–,–,–,6.25,MIC (MRSA-44): 6.25 µM; MIC [2]: 2.35 to 12.5 µM
"CC(=O)NC[C@H]1CN(c2ccc(N3CCOCC3)c(F)c2)C(=O)O1 [Linezolid, reference compound]",–,–,31.3,–,–,–,–,12.5,–
"[H]/N=C(/N)N[C@H]1[C@H](O)[C@@H](O)[C@H](O[C@@H]2O[C@@H](C)[C@](O)(C=O)[C@H]2O[C@@H]2O[C@@H](CO)[C@H](O)[C@@H](O)[C@@H]2NC)[C@@H](N/C(N)=N\[H])[C@@H]1O [Streptomycin, reference compound]",–,–,–,–,–,–,–,–,MIC Mtb H37Ra (Mtb H37Ra): 1.32 µM
"CN[C@H](CC(C)C)C(=O)N[C@H]1C(=O)N[C@@H](CC(N)=O)C(=O)N[C@H]2C(=O)N[C@H]3C(=O)N[C@H](C(=O)N[C@H](C(=O)O)c4cc(O)cc(O)c4-c4cc3ccc4O)[C@H](O)c3ccc(c(Cl)c3)Oc3cc2cc(c3O[C@@H]2O[C@H](CO)[C@@H](O)[C@H](O)[C@H]2O[C@H]2C[C@](C)(N)[C@H](O)[C@H](C)O2)Oc2ccc(cc2Cl)[C@H]1O [Vancomycin, reference compound]",–,–,–,–,–,–,3,–,"MIC (S. aureus 147; Staphylococcus aureus, 147, read-out: MIC S. aureus 147): 0.59 µM; MBC (VRE 700221 biofilms): 750 µM; MBC [1]: 11.7 µM; MIC (VRE 700221): > 100 µM; MIC VRE 700221 (VRE 700221; [4]): >100 µM"
